# In US20150191469A1, “COMPOUNDS AND METHODS FOR TREATING HIV” (priority 2012, published 2015):
# Counter-ions that a name gives are not always drawn.
# Tested on: HIV
# Assay: MT4 assay: antiviral HIV activity (cell protection, cell titer glo readout at 96 hours)
# Format: cell-based
# Conditions: Human immunodeficiency virus 1, MT4, 96 h, MT4 cells, cell titer glo readout at 96 hours, 10 point dose response; read-out: HIV MT4 Assay IC50
# Method: Antiviral HIV activity and cytotoxicity values for compounds of the invention from Table 1 were measured in parallel in the HTLV-1 transformed cell line MT-4 based on the method previously described (Hazen et al., 2007, In vitro antiviral activity of the novel, tyrosyl-based human immunodeficiency virus (HIV) type 1 protease inhibitor brecanavir (GW640385) in combination with other antiretrovirals and against a panel of protease inhibitor-resistant HIV (Hazen et al., “In vitro antiviral activity of the novel, tyrosyl-based human immunodeficiency virus (HIV) type 1 protease inhibitor brecanavir (GW640385) in combination with other antiretrovirals and against a panel of protease inhibitor-resistant HIV”, Antimicrob. Agents Chemother. 2007, 51: 3147-3154; and Pauwels et al., “Sensitive and rapid assay on MT-4 cells for the detection of antiviral compounds against the AIDS virus”, J. of Virological Methods 1987, 16: 171-185).
# Luciferase activity was measured 96 hours later by adding a cell titer glo (Promega, Madison, Wis.). Percent inhibition of cell protection data was plotted relative to no compound control. Under the same condition, cytotoxicity of the compounds was determined using cell titer Glo™ (Promega, Madison, Wis.). IC50s were determined from a 10 point dose response curve using 3-4-fold serial dilution for each compound, which spans a concentration range >1000 fold.
# These values are plotted against the molar compound concentrations using the standard four parameter logistic equation:
# y=((Vmax*x̂n)/(K̂n+x̂n))+Y2
# Y2=minimum y n=slope factor
# Vmax=maximum y x=compound concentration [M]
row,Compound,IC50 [nM]
1,"Cc1nc2c(cc(-c3ccnc(N4C[C@@H]5CC[C@@H](C5)C4)c3)n2C)c(-c2cc(F)c3c(c2C)CCCO3)c1[C@H](OC(C)(C)C)C(=O)O (atropisomer, axis not shown) [Example 111]",27.5
2,Cc1nc2c(cc(-c3cncc(-c4ccc5c(cnn5C)c4)c3)n2C)c(-c2cc(F)c3c(c2C)CCCO3)c1[C@H](OC(C)(C)C)C(=O)O [Example 138],1.5
3,Cc1nc2c(cc(-c3nnc(N4CCC(N5CCCC5)CC4)o3)n2C)c(-c2cc(F)c3c(c2C)CCCO3)c1[C@H](OC(C)(C)C)C(=O)O [Example 344],130
4,Cc1nc2c(cc(C(=O)N3CCN(c4ccccc4)CC3)n2C)c(-c2cc(F)c3c(c2C)CCCO3)c1[C@H](OC(C)(C)C)C(=O)O [Example 172],5.9
5,"Cc1nc2c(cc(CCC(=O)NCc3ccc(F)cc3)n2C)c(-c2cc(F)c3c(c2C)CCCO3)c1[C@H](OC(C)(C)C)C(=O)O (atropisomer, axis not shown; (M)) [Example 297, (2S)(M) 2-(tert-butoxy)-2-((R)-4-(8-fluoro-5-methylchroman-6-yl)-2-(3-((4-fluorobenzyl)amino)-3-oxopropyl)-1,6-dimethyl-1H-pyrrolo[2,3-b]pyridin-5-yl)acetic acid]",130
6,"Cc1nc2c(cc(-c3ccnc(C(=O)Nc4ccnn4C)c3)n2C)c(-c2cc(F)c3c(c2C)CCCO3)c1[C@H](OC(C)(C)C)C(=O)O (atropisomer, axis not shown) [Example 148]",40.1
7,Cc1nc2c(cc(-c3csc(N4CCN(C5CCOCC5)CC4)n3)n2C)c(-c2cc(F)c3c(c2C)CCCO3)c1[C@H](OC(C)(C)C)C(=O)O [Example 408],2.7
8,Cc1nc2c(cc(C(=O)NCc3c(F)cccc3Cl)n2C)c(-c2cc(F)c3c(c2C)CCCO3)c1[C@H](OC(C)(C)C)C(=O)O [Example 257],2
9,"Cc1nc2c(cc(-c3ccnc(-c4cnc(O)nc4)c3)n2C)c(-c2cc(F)c3c(c2C)CCCO3)c1[C@H](OC(C)(C)C)C(=O)O (atropisomer, axis not shown) [Example 36]",8410
10,Cc1nc2c(cc(-c3nc(N4CCC(N(C)C)CC4)ns3)n2C)c(-c2cc(F)c3c(c2C)CCCO3)c1[C@H](OC(C)(C)C)C(=O)O [Example 396],15.5
11,"Cc1nc2c(cc(-c3ccnc(C(=O)NC4CCCCC4)c3)n2C)c(-c2cc(F)c3c(c2C)CCCO3)c1[C@H](OC(C)(C)C)C(=O)O (atropisomer, axis not shown) [Example 152]",72.4
12,"Cc1nc2c(cc(-c3ccnc(-c4ccc5c(cnn5C)c4)c3)n2C)c(-c2ccc(Cl)cc2)c1[C@H](OC(C)(C)C)C(=O)O [Example 15, (2S)-2-(tert-butoxy)-2-[4-(4-chlorophenyl)-1,6-dimethyl-2-[2-(1-methyl-1H-indazol-5-yl)pyridin-4-yl]-1H-pyrrolo[2,3-b]pyridin-5-yl]acetic acid]",13.7
13,"Cc1nc2c(cc(-c3ccnc(-c4ccc5c(cnn5C)c4)c3)n2C)c(-c2cc(F)c3c(c2C)CCCO3)c1[C@H](OC(C)(C)C)C(=O)O (atropisomer, axis not shown) [Example 57]",1.4
14,Cc1nc2c(cc(-c3ccnc(N4CCC(Oc5ccccc5)C4)c3)n2C)c(-c2cc(F)c3c(c2C)CCCO3)c1[C@H](OC(C)(C)C)C(=O)O (stereo partly shown) [Example 107],44.5
15,Cc1nc2c(cc(-c3nnc(N4CCC4)o3)n2C)c(-c2cc(F)c3c(c2C)CCCO3)c1[C@H](OC(C)(C)C)C(=O)O [Example 325],13.6
16,Cc1nc2c(cc(-c3nc(N4CCN(CCN5CCOCC5)CC4)ns3)n2C)c(-c2cc(F)c3c(c2C)CCCO3)c1[C@H](OC(C)(C)C)C(=O)O [Example 405],2.7
17,Cc1nc2c(cc(CN3CC[C@@H](NC(=O)c4ccc5c(cnn5C)c4)C3)n2C)c(-c2cc(F)c3c(c2C)CCCO3)c1[C@H](OC(C)(C)C)C(=O)O [Example 293],44.3
18,Cc1nc2c(cc(-c3nsc(N4CCN(C5CC5)CC4)n3)n2C)c(-c2cc(F)c3c(c2C)CCCO3)c1[C@H](OC(C)(C)C)C(=O)O [Example 373],5.2

row,Compound,IC50 [nM]
1,"Cc1nc2c(cc(-c3nc(N4CCN(C5CCOCC5)CC4)no3)n2C)c(-c2cc(F)c3c(c2C)CCCO3)c1[C@H](OC(C)(C)C)C(=O)O (atropisomer, axis not shown; (M)) [Example 27, (2S)(M)-2-(tert-butoxy)-2-(4-(8-fluoro-5-methylchroman-6-yl)-1,6-dimethyl-2-(3-(4-(tetrahydro-2H-pyran-4-yl)piperazin-1-yl)-1,2,4-oxadiazol-5-yl)-1H-pyrrolo[2,3-b]pyridin-5-yl)acetic acid]",4.6
2,Cc1nc2c(cc(C(=O)NCCCN3CCCC3=O)n2C)c(-c2cc(F)c3c(c2C)CCCO3)c1[C@H](OC(C)(C)C)C(=O)O [Example 273],939
3,Cc1nc2c(cc(-c3nc(NC4CCOCC4)ns3)n2C)c(-c2cc(F)c3c(c2C)CCCO3)c1[C@H](OC(C)(C)C)C(=O)O [Example 407],25.4
4,Cc1nc2c(cc(C(=O)N3CCN(c4ncccn4)CC3)n2C)c(-c2cc(F)c3c(c2C)CCCO3)c1[C@H](OC(C)(C)C)C(=O)O [Example 199],27.6
5,Cc1nc2c(cc(-c3cccc(-c4ccc5c(cnn5C)c4)n3)n2C)c(-c2cc(F)c3c(c2C)CCCO3)c1[C@H](OC(C)(C)C)C(=O)O [Example 71],23.4
6,"Cc1nc2c(cc(-c3nc(N4C[C@@H](C)O[C@@H](C)C4)no3)n2C)c(-c2cc(F)c3c(c2C)CCCO3)c1[C@H](OC(C)(C)C)C(=O)O (atropisomer, axis not shown; (M)) [Example 410, (2S)(M)-2-(tert-butoxy)-2-(-2-(3-((2S,6R)-2,6-dimethylmorpholino)-1,2,4-oxadiazol-5-yl)-4-(8-fluoro-5-methylchroman-6-yl)-1,6-dimethyl-1H-pyrrolo[2,3-b]pyridin-5-yl)acetic acid]",3.1
7,Cc1nc2c(cc(C(=O)NC3CCCCC3)n2C)c(-c2cc(F)c3c(c2C)CCCO3)c1[C@H](OC(C)(C)C)C(=O)O [Example 249],12.1
8,"Cc1nc2c(cc(-c3ccnc(N4CCN(C5CC5)CC4)c3)n2C)c(-c2cc(F)c3c(c2C)CCCO3)c1[C@H](OC(C)(C)C)C(=O)O (atropisomer, axis not shown) [Example 118]",15
9,"Cc1nc2c(cc(-c3nnc(-c4ccc5c(cnn5C)c4)o3)n2C)c(-c2cc(F)c3c(c2C)CCCO3)c1[C@H](OC(C)(C)C)C(=O)O (atropisomer, axis not shown; (M)) [Example 28, (2S)(M)-2-(tert-butoxy)-2-(4-(8-fluoro-5-methylchroman-6-yl)-1,6-dimethyl-2-(5-(1-methyl-1H-indazol-5-yl)-1,3,4-oxadiazol-2-yl)-1H-pyrrolo[2,3-b]pyridin-5-yl)acetic acid]",1.8
10,"Cc1nc2c(cc(-c3ccnc(-c4ccc(N(C)C)nc4)c3)n2C)c(-c2cc(F)c3c(c2C)CCCO3)c1[C@H](OC(C)(C)C)C(=O)O (atropisomer, axis not shown) [Example 69]",4.8
11,Cc1nc2c(cc(-c3ccnc(-c4ccc5c(cnn5C)c4)c3)n2C)c(C)c1[C@H](OC(C)(C)C)C(=O)O [Example 426],45000
12,COCCCNC(=O)c1cc2c(-c3cc(F)c4c(c3C)CCCO4)c([C@H](OC(C)(C)C)C(=O)O)c(C)nc2n1C [Example 252],65.2
13,Cc1nc2c(cc(-c3nnc(N4CCN(C5COC5)CC4)o3)n2C)c(-c2cc(F)c3c(c2C)CCCO3)c1[C@H](OC(C)(C)C)C(=O)O [Example 315],40.6
14,"Cc1nc2c(cc(-c3ccnc(C(=O)Nc4ccn(C)n4)c3)n2C)c(-c2cc(F)c3c(c2C)CCCO3)c1[C@H](OC(C)(C)C)C(=O)O (atropisomer, axis not shown) [Example 153]",44
15,Cc1nc2c(cc(C(=O)N3Cc4ccccc4C3)n2C)c(-c2cc(F)c3c(c2C)CCCO3)c1[C@H](OC(C)(C)C)C(=O)O [Example 184],42
16,"Cc1nc2c(cc(CN3CCCCC3)n2C)c(-c2cc(F)c3c(c2C)CCCO3)c1[C@H](OC(C)(C)C)C(=O)O (atropisomer, axis not shown; (M)) [Example 288, (2S)(M)-2-(tert-butoxy)-2-(-4-(8-fluoro-5-methylchroman-6-yl)-1,6-dimethyl-2-(piperidin-1-ylmethyl)-1H-pyrrolo[2,3-b]pyridin-5-yl)acetic acid]",250
17,Cc1nc2c(cc(/C=C/C(=O)NCC3CC3)n2C)c(-c2cc(F)c3c(c2C)CCCO3)c1[C@H](OC(C)(C)C)C(=O)O [Example 415],40.1
18,"COC1CCN(c2cc(-c3cc4c(-c5cc(F)c6c(c5C)CCCO6)c([C@H](OC(C)(C)C)C(=O)O)c(C)nc4n3C)ccn2)CC1 (atropisomer, axis not shown) [Example 86]",13.2

# Same assay, conditions: Human immunodeficiency virus 1, MT4, 96 h, read-out: HIV MT4 Assay IC50
row,Compound,IC50 [nM]
1,"Cc1nc2c(cc(C(=O)N3CCN(C4CCCC4)CC3)n2C)c(-c2cc(F)c3c(c2C)CCCO3)c1[C@H](OC(C)(C)C)C(=O)O (atropisomer, axis not shown; (M)) [Example 161, (2S)(M)-2-(tert-butoxy)-2-(2-(4-cyclopentylpiperazine-1-carbonyl)-4-(8-fluoro-5-methylchroman-6-yl)-1,6-dimethyl-1H-pyrrolo[2,3-b]pyridin-5-yl)acetic acid ditrifluoroacetic acid salt]",37.9
